Usually EC50 stands for the concentration that produces a half-maximal response. Low readings indicate a more potent agent, high ones a less potent agent. As usually defined, the Ki is a measure of affinity in units of concentration, obtained from inhibition or displacement.

Test [1] has as its target T1, EP2 (Homo sapiens, UniProt P43116). The test is described as follows: EP2 flipr functional assay. Format: cell-based. The text has this:
(§1) U.S. patent application Ser. No. 11/553,143, filed on Oct. 26, 2006, incorporated by reference herein, describes the methods used to obtain the in vitro data in the table below.

Test [2] deals with EP4 (Homo sapiens, UniProt P35408). The test is described as follows: EP4 binding (Ki).
Sequence of EP4 (P35408 whole entry): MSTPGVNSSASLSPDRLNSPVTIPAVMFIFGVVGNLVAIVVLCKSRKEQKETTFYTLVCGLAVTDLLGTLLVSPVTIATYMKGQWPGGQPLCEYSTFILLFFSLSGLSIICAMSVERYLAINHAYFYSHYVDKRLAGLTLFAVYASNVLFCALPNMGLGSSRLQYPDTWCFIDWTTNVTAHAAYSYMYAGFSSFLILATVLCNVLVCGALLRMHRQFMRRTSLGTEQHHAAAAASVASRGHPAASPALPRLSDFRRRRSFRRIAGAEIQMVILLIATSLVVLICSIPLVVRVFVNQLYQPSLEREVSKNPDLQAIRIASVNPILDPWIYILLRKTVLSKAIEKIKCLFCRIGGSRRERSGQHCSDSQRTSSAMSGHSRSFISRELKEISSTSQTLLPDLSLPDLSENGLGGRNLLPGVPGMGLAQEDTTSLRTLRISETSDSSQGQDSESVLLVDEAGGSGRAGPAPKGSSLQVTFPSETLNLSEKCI
Source text: as §1

Test [3] has as its target T2, hEP3A (Homo sapiens, UniProt P43115).
T2 sequence (P43115 1-390): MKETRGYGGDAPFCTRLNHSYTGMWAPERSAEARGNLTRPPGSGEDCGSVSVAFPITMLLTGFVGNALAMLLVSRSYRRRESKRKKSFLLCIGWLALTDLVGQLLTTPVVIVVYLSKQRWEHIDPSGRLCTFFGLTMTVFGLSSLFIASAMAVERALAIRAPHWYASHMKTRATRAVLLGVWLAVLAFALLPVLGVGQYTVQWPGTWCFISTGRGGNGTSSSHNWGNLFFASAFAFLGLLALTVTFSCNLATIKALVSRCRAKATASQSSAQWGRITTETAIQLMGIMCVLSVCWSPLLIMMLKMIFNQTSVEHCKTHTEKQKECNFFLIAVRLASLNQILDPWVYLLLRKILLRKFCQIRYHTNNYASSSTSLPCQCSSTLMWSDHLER
Briefly: Other receptors functional assay, hEP3A. Format: cell-based.
Source text: as §1

Test [4] has as its target T1, EP2. Briefly: EP2 binding (Ki).
Source text: as §1

Test [5] deals with T1, EP2. Briefly: EP2 cAMP assay. Format: cell-based.
Source text: as §1
(In general: Changes in cAMP serve as a functional read-out for many G protein-coupled receptors.)

Bounds are passed on as bounds.

T1 sequence (P43116 whole entry): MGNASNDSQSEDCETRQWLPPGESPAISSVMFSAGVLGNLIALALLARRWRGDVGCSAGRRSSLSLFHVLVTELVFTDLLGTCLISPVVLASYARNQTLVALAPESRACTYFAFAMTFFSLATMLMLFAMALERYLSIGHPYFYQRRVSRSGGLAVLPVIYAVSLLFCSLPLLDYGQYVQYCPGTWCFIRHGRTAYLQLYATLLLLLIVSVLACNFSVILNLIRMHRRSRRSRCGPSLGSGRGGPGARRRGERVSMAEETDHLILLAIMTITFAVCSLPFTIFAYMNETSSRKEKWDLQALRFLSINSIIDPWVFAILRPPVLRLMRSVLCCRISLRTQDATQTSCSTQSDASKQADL

In the case of `CCCCC[C@H](O)c1ccc(N2C(=O)CCN2CCCc2ccc(C(=O)O)s2)cc1` (stereo in doubt) [5-(3-(2-(4-(1-hydroxyhexyl)phenyl)-3-oxopyrazolidin-1-yl)propyl)thiophene-2-carboxylic Acid], the figures for the EC50 in test [1], in test [3] and in test [5] were 79 nM, 5070 nM and 1.8 nM, respectively. Besides, the Ki in test [2] is above 10000 nM; in test [4], 251 nM.

Source of the values: patent publication US7576112B2, “Therapeutic N-aryl or N-heteroaryl pyrazolidine and pyrazolidinone derivatives” (Allergan, Inc., priority 2006, dated 2009).
